Data reported in ChEMBL document CHEMBL4680144, “N-thiadiazole-4-hydroxy-2-quinolone-3-carboxamides bearing heteroaromatic rings as novel antibacterial agents: Design, synthesis, biological evaluation and target identification” (Eur J Med Chem, 2020).
pIC50: −log10 of the molar value. ≈ marks a conversion by molar mass, not a printed value. Calls of active or inactive are those of the source. The calls are words filed in the database; no cut-off is given here.

How the values were obtained:
[1] = test system: Staphylococcus aureus; assay: Inhibition of Staphylococcus aureus Gyrase B assessed as reduction in supercoiled pBR322 DNA production incubated for 30 mins by ethidium bromide staining based agarose gel electrophoresis method; details: dose 0.1-100 µM
[2] = test system: Staphylococcus aureus; assay: Antibacterial activity against wild type methicillin-sensitive Staphylococcus aureus ATCC 29213 assessed as inhibition of bacterial growth incubated for 18 to 24 hrs by broth microdilution method; assay type: functional; details: time 18-24 hrs
[3] = test system: Staphylococcus aureus; assay: In vivo antibacterial activity against methicillin-resistant Staphylococcus aureus clinical isolate 15-1 infected in Kunming mouse assessed as protection from systemic infection up to 50 mg/kg, po administered twice after bacterial infection; assay type: functional, organism-based; details: dose mg/kg <=50
[4] = test system: Staphylococcus aureus; assay: Antibacterial activity against methicillin resistant and vancomycin-intermediate sensitive Staphylococcus aureus ATCC 700788 assessed as inhibition of bacterial growth incubated for 18 to 24 hrs by broth microdilution method; assay type: functional; details: time 18-24 hrs
[5] = test system: HUVEC; assay: Cytotoxicity against HUVEC assessed as reduction in cell viability after 72 hrs by sulforhodamine B assay; assay type: cell-based; details: Homo sapiens
[6] = test system: Enterococcus faecium; assay: Potency index, ratio of vancomycin MIC to test compound MIC for antibacterial activity against Enterococcus faecium clinical isolate 15-2 assessed as inhibition of bacterial growth incubated for 18 to 24 hrs by broth microdilution method; assay type: functional; details: time 18-24 hrs
[7] = biological target: DNA topoisomerase 4 subunit B (Staphylococcus aureus, UniProt P0C1S7); assay: Inhibition of Staphylococcus aures ParE using pBR322 DNA as substrate in presence of ATP
[8] = test system: Staphylococcus epidermidis; assay: Antibacterial activity against methicillin-resistant Staphylococcus epidermidis clinical isolate 15-1 assessed as inhibition of bacterial growth incubated for 18 to 24 hrs by broth microdilution method; assay type: functional; details: time 18-24 hrs
[9] = test system: Enterococcus faecalis; assay: Antibacterial activity against Enterococcus faecalis clinical isolate 15-1 assessed as inhibition of bacterial growth incubated for 18 to 24 hrs by broth microdilution method; assay type: functional; details: time 18-24 hrs
[10] = test system: Staphylococcus aureus; assay: In vivo antibacterial activity against methicillin resistant Staphylococcus aureus clinical isolate 15-1 infected in kunming mouse assessed as animal survival rate at 0.33 mg/kg, po administered 6 hrs prior to bacterial infection and at 0 and 6 hrs post infection and measured for 7 days (reference value: 12.5 %); assay type: functional; details: 15-1, po, 168 h, time 7 day
[11] = AUCinfinity in Kunming mouse at 10 mg/kg, po by HPLC analysis; assay type: ADME, organism-based; design: time infinity, route oral, dose 10 mg/kg; details: in vivo
[12] = test system: Staphylococcus epidermidis; assay: Antibacterial activity against methicillin-sensitive Staphylococcus epidermidis clinical isolate 15-3 assessed as inhibition of bacterial growth incubated for 18 to 24 hrs by broth microdilution method; assay type: functional; details: time 18-24 hrs
[13] = test system: Staphylococcus aureus; assay: Antibacterial activity against methicillin-resistant Staphylococcus aureus clinical isolate 15-1 assessed as reduction in bacterial growth treated for 20 passages; assay type: functional; details: time 24 hrs
[14] = Inhibition of Staphylococcus aureus Gyrase B using linear pBR322 DNA as substrate incubated for 30 mins in presence of ATP by ADP-Glo assay
[15] = test system: Staphylococcus aureus; assay: Antibacterial activity against methicillin-resistant Staphylococcus aureus clinical isolate 15-9 assessed as inhibition of bacterial growth incubated for 18 to 24 hrs by broth microdilution method; assay type: functional; details: time 18-24 hrs
[16] = test system: Staphylococcus epidermidis; assay: Antibacterial activity against methicillin-resistant Staphylococcus epidermidis clinical isolate 15-2 assessed as inhibition of bacterial growth incubated for 18 to 24 hrs by broth microdilution method; assay type: functional; details: time 18-24 hrs
[17] = test system: Staphylococcus aureus; assay: Potency index, ratio of vancomycin MIC to test compound MIC for antibacterial activity against methicillin-resistant Staphylococcus aureus clinical isolate 15-8 assessed as inhibition of bacterial growth incubated for 18 to 24 hrs by broth microdilution method; assay type: functional; details: time 18-24 hrs
[18] = test system: Staphylococcus aureus; assay: Antibacterial activity against methicillin-resistant Staphylococcus aureus clinical isolate 15-1 assessed as inhibition of bacterial growth incubated for 18 to 24 hrs by broth microdilution method; assay type: functional; details: time 18-24 hrs
[19] = MRTlast in Kunming mouse at 10 mg/kg, po measured upto 72 hrs by HPLC analysis; assay type: ADME, organism-based; details: in vivo
[20] = Selectivity index, ratio of IC50 for human HUVEC cells to MIC for methicillin-resistant Staphylococcus aureus; assay type: toxicity
[21] = test system: Staphylococcus aureus; assay: Bactericidal activity against methicillin-resistant Staphylococcus aureus clinical isolate 15-1 assessed as reduction in log10CFU at 8 times MIC measured over 24 hrs by time kill kinetics analysis; assay type: functional
[22] = test system: Enterococcus faecalis; assay: Potency index, ratio of vancomycin MIC to test compound MIC for antibacterial activity against Enterococcus faecalis clinical isolate 15-2 assessed as inhibition of bacterial growth incubated for 18 to 24 hrs by broth microdilution method; assay type: functional; details: time 18-24 hrs
[23] = test system: HepG2; assay: Cytotoxicity against human HepG2 cells assessed as reduction in cell viability after 72 hrs by sulforhodamine B assay; assay type: cell-based; details: HepG2, 72 h
[24] = test system: Staphylococcus aureus; assay: Antibacterial activity against methicillin-resistant Staphylococcus aureus clinical isolate 15-2 assessed as inhibition of bacterial growth incubated for 18 to 24 hrs by broth microdilution method; assay type: functional; details: time 18-24 hrs
[25] = test system: Enterococcus faecalis; assay: Antibacterial activity against vancomycin-resistant Enterococcus faecalis ATCC 700802 assessed as inhibition of bacterial growth incubated for 18 to 24 hrs by broth microdilution method; assay type: functional; details: time 18-24 hrs
[26] = test system: Staphylococcus aureus; assay: Antibacterial activity against methicillin resistant and vancomycin-intermediate sensitive Staphylococcus aureus ATCC 700699 assessed as inhibition of bacterial growth incubated for 18 to 24 hrs by broth microdilution method; assay type: functional; details: time 18-24 hrs
[27] = test system: Staphylococcus aureus; assay: Antibacterial activity against methicillin-resistant Staphylococcus aureus clinical isolate 15-7 assessed as inhibition of bacterial growth incubated for 18 to 24 hrs by broth microdilution method; assay type: functional; details: time 18-24 hrs

Chain of DNA topoisomerase 4 subunit B (P0C1S7 whole entry): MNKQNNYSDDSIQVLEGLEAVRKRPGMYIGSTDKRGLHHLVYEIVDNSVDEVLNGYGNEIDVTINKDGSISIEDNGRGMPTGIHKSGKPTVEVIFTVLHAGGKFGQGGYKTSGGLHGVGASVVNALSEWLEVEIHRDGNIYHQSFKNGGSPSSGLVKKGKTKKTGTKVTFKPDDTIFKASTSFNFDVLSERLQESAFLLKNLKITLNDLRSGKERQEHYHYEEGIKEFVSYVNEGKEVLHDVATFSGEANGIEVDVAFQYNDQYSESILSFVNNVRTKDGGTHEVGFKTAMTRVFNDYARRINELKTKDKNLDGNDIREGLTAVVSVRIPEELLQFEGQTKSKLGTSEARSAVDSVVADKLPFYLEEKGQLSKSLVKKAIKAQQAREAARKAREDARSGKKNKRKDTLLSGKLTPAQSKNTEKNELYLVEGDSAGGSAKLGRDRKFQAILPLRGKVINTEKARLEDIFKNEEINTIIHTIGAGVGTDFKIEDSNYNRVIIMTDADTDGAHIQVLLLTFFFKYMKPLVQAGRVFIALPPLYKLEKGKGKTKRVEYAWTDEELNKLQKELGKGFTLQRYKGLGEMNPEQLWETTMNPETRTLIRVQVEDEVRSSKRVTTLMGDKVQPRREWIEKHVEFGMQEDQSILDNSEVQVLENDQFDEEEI

For `CCn1c(=O)c(C(=O)Nc2nnc(-c3nccs3)s2)c(O)c2ccccc21`, the inhibition [1] was “Dose-dependent effect”, the MIC [2] was 0.1 µg/mL (≈ 0.25 µM) and the Activity [3] was “inactive”. The MIC [4] was 0.5 µg/mL (≈ 1.25 µM), the pIC50 [5] was 4.41 and the Ratio [6] was 2. The pIC50 [7] was under 4.00, the MIC [8] was 0.5 µg/mL (≈ 1.25 µM) and the MIC [9] was 0.5 µg/mL (≈ 1.25 µM). The survival at 0.33 mg/kg [10] was 25%, the AUC(0-inf) [11] was 2620 ng·h/mL and the MIC [12] was 0.5 µg/mL (≈ 1.25 µM). For the same compound, the MIC [13] was 0.5 µg/mL (≈ 1.25 µM), the pIC50 [14] was 6.82 and the MIC [15] was 0.25 µg/mL (≈ 0.626 µM). The MIC [16] was 0.5 µg/mL (≈ 1.25 µM), the Ratio [17] was 2 and the MIC [18] was 0.5 µg/mL (≈ 1.25 µM). For the same compound, the MRT last at 72 h [19] was 2.7 h, the selectivity ratio [20] was 77.6 and the Activity [21] was 3 log10CFU/ml. For the same compound, the Ratio [22] was 2, the pIC50 [23] was 4.26 and the MIC [24] was 0.5 µg/mL (≈ 1.25 µM). It also gave an MIC [25] of 0.5 µg/mL (≈ 1.25 µM), an MIC [26] of 0.5 µg/mL (≈ 1.25 µM) and an MIC [27] of 0.5 µg/mL (≈ 1.25 µM).
